{
  "source": "paper PMC3269340",
  "about": "“Pharmacokinetics of memantine in rats and mice” (PLoS Currents, 2012)",
  "type_in_all_cases": "in vitro ADME",
  "key": {"[1]": {"test_system": "Caco2 cells", "test": "Bidirectional Caco permeability", "settings": "Caco2 cells", "procedure": "(§1) CacoReady ^TM 24-transwell plates with plated Caco cells were purchased from Advancell, and were prepared for the experiments following manufacturer’s instructions. Memantine and reference compounds (propranolol, digoxin and vinblatine) were added to either the apical or basolateral chambers of the transwell plate assembly at a concentration of 10 μM prepared in Hanks’ Balanced Salt Solution containing 25 mM HEPES (pH7.4). Lucifer Yellow (LY) was added to the donor buffer in all wells to assess viability of the cell layer. Since LY cannot freely permeate lipophilic barriers, results were rejected when a high degree of LY transport (>100nm/s) was observed. After a 1 h incubation at 37°C, aliquots were taken from both chambers and added to acetonitrile containing an analytical internal standard in a 96-well plate. Concentrations of compound in the samples were measured by (HPLC-MS/MS).\n(§2) Papp values were calculated from the relationship:\n(§3) Papp = ([compound]acceptor final × Va )/ (A × time ([compound]donor initial )\n(§4) The efflux ratio (Er) was calculated as\n(§5) Er = Papp (B to A) / Papp (A to B)"}, "[2]": {"test": "Bidirectional Caco permeability", "settings": "human, Caco-2, pH 7.4", "procedure": "as §1, §2, §3, §4, §5"}, "[3]": {"test": "Metabolite identification in rat liver microsomes", "settings": "10 µM, 1 mg/mL rat liver microsomal protein, 60 min", "procedure": "Metabolites of memantine were characterized following incubation in pooled rat liver microsomes. Incubation conditions were as described above (Section 4.1), except that for metabolite identification the memantine concentration was 10 µM, 1 mg/mL of liver microsomal protein was used, and the metabolites were identified following a 60 min incubation period. Control incubations (T=0 min) were used as reference, and testosterone incubations were used as a positive control.\nFull scan mass spectra were acquired by TOF-MS as accurate mass. The instruments were controlled and data acquired by Waters MassLynx™ version 4.1 (SCN 714) software. The TOF-MS spectra were interrogated and metabolite reports generated by Waters MetaboLynx™ XS software."}, "[4]": {"test": "Stability in rat liver microsomes", "settings": "0.5 mg/mL pooled male microsomes, read-out: Intrinsic Clearance (Cl int) Liver Microsomes", "procedure": "Memantine (1 μM) was incubated in 0.5 mg/mL of pooled male rat, mouse, or human liver microsomes (obtained commercially), in 0.1 M phosphate buffer at 37 °C. After pre-warming the mixture for 5 min, reactions were initiated by the addition of NADPH (1 mM). Aliquots (80 μL) were taken at 0, 5, 10, 20 and 40 min, and the reaction immediately terminated by adding into 80 μL of acetonitrile containing an analytical internal standard (IS). Samples were centrifuged and the supernatant fractions analyzed by LC-MS/MS with multiple reaction monitoring (MRM). All incubations were performed in duplicate. Testosterone was used as the positive control. The MRM area response ratio of the analyte over IS for Time=0(control) was set to 100%, the relative decrease in MRM area ratio intensity over time against that of the control (percent parent decrease) was used to determine the half-life (t1/2) of memantine in the incubation. Half-life values were calculated from the relationship:\nt1/2 (min) = -0.693/λ, where λ is the slope of the Ln concentration vs time curve. The intrinsic clearance (Clint) was calculated as:\nClint = (0.693 x incubation volume (μL))/(t½ (min) x mg of microsomal protein)"}, "[5]": {"target": "T1, OCT2 (Homo sapiens, UniProt O15244)", "T1 construct": "expressed in transfected cells; host or cells: CHO cells", "T1 sequence (O15244 1-555)": "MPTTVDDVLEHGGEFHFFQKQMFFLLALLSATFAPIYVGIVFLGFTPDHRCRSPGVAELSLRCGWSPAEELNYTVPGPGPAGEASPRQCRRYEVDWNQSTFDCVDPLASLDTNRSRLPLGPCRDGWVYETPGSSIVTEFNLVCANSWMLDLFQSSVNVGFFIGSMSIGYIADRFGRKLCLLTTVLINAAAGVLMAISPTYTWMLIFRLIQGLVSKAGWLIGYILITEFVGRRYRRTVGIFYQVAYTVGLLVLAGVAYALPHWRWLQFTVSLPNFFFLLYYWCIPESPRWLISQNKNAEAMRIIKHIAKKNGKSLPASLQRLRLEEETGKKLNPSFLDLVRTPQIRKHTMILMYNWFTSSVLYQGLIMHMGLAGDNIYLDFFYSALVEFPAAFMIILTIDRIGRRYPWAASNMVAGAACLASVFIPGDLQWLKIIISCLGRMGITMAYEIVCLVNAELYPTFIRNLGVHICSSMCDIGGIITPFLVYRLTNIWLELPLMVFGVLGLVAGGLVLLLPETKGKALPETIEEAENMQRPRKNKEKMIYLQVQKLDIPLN", "test": "Direct uptake transporter assay, OCT2", "settings": "for Accumulation in transporter transfected cells: OCT2-transfected cells; for Accumulation in parental cells: parental CHO cells (OCT2 line)", "procedure": "To determine whether memantine is a substrate of the human OATP2B1 (OATP-B), OCT1, OCT2, OAT3, PEPT1, PEPT2 uptake transporters.\nThe potential for memantine to be a substrate of an uptake transporter was determined directly by comparing the uptake of memantine into cells expressing the selected uptake transporter with its uptake into control cells. Memantine was added to transporter-expressing and control cells at two concentrations (PEPT1 and PEPT2 100 and 300 µM, OCT1 and OCT2 50 and 100 µM, OATP2B1 100 and 300 µM), and incubated with cells for 2 and 20 min at 37±1°C (75 µL final incubation volume). […] Incubations were carried out as described in the indirect uptake transporter assays. The concentration of memantine was determined by LC-MS/MS."}},
  "data": [
    {"smiles": "CC12CC3CC(C)(C1)CC(N)(C3)C2", "note": "[memantine]", "values": [
      {"measurement": "MDR1 (Pgp) substrate", "setting": "[1]", "value": "not a MDR1 (Pgp) substrate"},
      {"measurement": "Papp A→B at 1 h, 10 μM", "setting": "[2]; 10 μM, pH7.4, 1 h, read-out: Caco Permeability AtoB", "value": 43.4, "unit": "×10⁻⁶ cm/s"},
      {"measurement": "Papp B→A at 1 h, 10 μM", "setting": "[2]; 10 μM, pH7.4, 1 h, read-out: Caco Permeability BtoA", "value": 47, "unit": "×10⁻⁶ cm/s"},
      {"measurement": "efflux ratio at 1 h, 10 μM", "setting": "[2]; Papp (B to A) / Papp (A to B), read-out: ER (efflux ratio)", "value": "~1"},
      {"measurement": "most abundant metabolite (based on uv signal response)", "setting": "[3]", "value": "product of a single aliphatic hydroxylation"},
      {"measurement": "microsomal CLint at 1 μM", "setting": "[4]", "value": 50.4, "unit": "µL/min/mg"},
      {"measurement": "substrate of OCT2 uptake transporter", "setting": "[5]", "value": "appeared to be a substrate"},
      {"measurement": "accumulation in transporter-transfected cells higher than in parental cells", "setting": "[5]; OCT2", "value": "> 1.5", "unit": "fold"},
      {"measurement": "Highest Fold Activation", "setting": "[5]; OCT2, 100µM, 2 min", "value": "1.88 (100µM, 2 min)"},
      {"measurement": "Accumulation in transporter transfected cells", "setting": "[5]; 2 min, 50 µM", "value": 8492, "unit": "pmol/mg"},
      {"measurement": "Accumulation in transporter transfected cells", "setting": "[5]; 2 min, 100 µM", "value": 15071, "unit": "pmol/mg"},
      {"measurement": "Accumulation in transporter transfected cells", "setting": "[5]; 20 min, 50 µM", "value": 8866, "unit": "pmol/mg"},
      {"measurement": "Accumulation in transporter transfected cells", "setting": "[5]; 20 min, 100 µM", "value": 15495, "unit": "pmol/mg"},
      {"measurement": "Accumulation in parental cells", "setting": "[5]; 2 min, 50 µM", "value": 5660, "unit": "pmol/mg"},
      {"measurement": "Accumulation in parental cells", "setting": "[5]; 2 min, 100 µM", "value": 8000, "unit": "pmol/mg"},
      {"measurement": "Accumulation in parental cells", "setting": "[5]; 20 min, 50 µM", "value": 5790, "unit": "pmol/mg"},
      {"measurement": "Accumulation in parental cells", "setting": "[5]; 20 min, 100 µM", "value": 8459, "unit": "pmol/mg"}
    ]}
  ]
}
